Experimental data published in ChEMBL document CHEMBL1201862, “PubChem BioAssay data set” (2004).
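Exposure lasted 48 hours, with cells grown in 96-well plates and compounds tested at five concentrations. GI50: concentration for 50% inhibition of growth.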 The source made the active and inactive calls. No stated cut-off is given here; in the data, active = GI50 up to about 1.1 µM and inactive = higher.

Experiments:
Test in all cases: NCI tumour cell line growth inhibition, 48 h
786-0 = test system: 786-0
NCI-H460 = test system: NCI-H460
MDA-N = test system: MDA-N
BT-549 = test system: BT-549
HT-29 = test system: HT-29
SF-268 = test system: SF-268
A549 = test system: A549
RXF 393 = test system: RXF 393
HOP-92 = test system: HOP-92
SNB-19 = test system: SNB-19
SF-295 = test system: SF-295
Malme-3M = test system: Malme-3M
KM12 = test system: KM12
OVCAR-5 = test system: OVCAR-5
K562 = test system: K562
MOLT-4 = test system: MOLT-4
HCT-15 = test system: HCT-15
OVCAR-3 = test system: OVCAR-3
SF-539 = test system: SF-539
SK-MEL-2 = test system: SK-MEL-2
NCI-H522 = test system: NCI-H522
SK-MEL-28 = test system: SK-MEL-28
RPMI-8226 = test system: RPMI-8226
SW-620 = test system: SW-620
OVCAR-4 = test system: OVCAR-4
SK-OV-3 = test system: SK-OV-3
UACC-62 = test system: UACC-62
U-251 = test system: U-251
HCC 2998 = test system: HCC 2998
M14 = test system: M14
LOX IMVI = test system: LOX IMVI
HCT-116 = test system: HCT-116
NCI-H226 = test system: NCI-H226
COLO 205 = test system: COLO 205
HOP-62 = test system: HOP-62
MDA-MB-435 = test system: MDA-MB-435
OVCAR-8 = test system: OVCAR-8
CAKI-1 = test system: CAKI-1
ACHN = test system: ACHN
UACC-257 = test system: UACC-257
IGROV-1 = test system: IGROV-1
SNB-75 = test system: SNB-75
HL-60 = test system: HL-60
Hs-578T = test system: Hs-578T
NCI/ADR-RES = test system: NCI/ADR-RES
SR = test system: SR
CCRF-CEM = test system: CCRF-CEM
NCI-H23 = test system: NCI-H23
DU-145 = test system: DU-145
A498 = test system: A498
MCF7 = test system: MCF7
SN12C = test system: SN12C
MDA-MB-231 = test system: MDA-MB-231
T47D = test system: T47D
EKVX = test system: EKVX
PC-3 = test system: PC-3
TK-10 = test system: TK-10
SK-MEL-5 = test system: SK-MEL-5
UO-31 = test system: UO-31

Measured: GI50

CC(=O)NC1=CC(=O)c2cc(C)cc(O)c2C1=O
2.88 µM: HCT-15
active: SK-MEL-28 0.822 µM | MDA-MB-435 0.721 µM
inactive: 786-0 13.7 µM | NCI-H460 14.9 µM | MDA-N 1.53 µM | BT-549 7.06 µM | HT-29 16.9 µM | SF-268 9.33 µM | A549 7.5 µM | RXF 393 12.5 µM | HOP-92 8.73 µM | SNB-19 28.1 µM | SF-295 19.2 µM | Malme-3M 1.9 µM | KM12 9.84 µM | OVCAR-5 12.5 µM | K562 3.74 µM | MOLT-4 4.85 µM | OVCAR-3 2.65 µM | SF-539 6.84 µM | SK-MEL-2 4.72 µM | NCI-H522 8.83 µM | RPMI-8226 2.92 µM | SW-620 3.41 µM | OVCAR-4 8.49 µM | SK-OV-3 > 63.2 µM | UACC-62 2.02 µM | U-251 9.33 µM | HCC 2998 2.03 µM | M14 1.75 µM | LOX IMVI 1.53 µM | HCT-116 5.51 µM | NCI-H226 19.8 µM | COLO 205 5.5 µM | HOP-62 17.9 µM | OVCAR-8 2.44 µM | CAKI-1 17.8 µM | ACHN 9.66 µM | UACC-257 1.85 µM | IGROV-1 11.8 µM | SNB-75 18.7 µM | HL-60 1.88 µM | Hs-578T 31.8 µM | NCI/ADR-RES 5.77 µM | SR 9.1 µM | CCRF-CEM 4.47 µM | NCI-H23 1.72 µM | DU-145 5.82 µM | A498 11 µM | MCF7 2.39 µM | SN12C 5.09 µM | MDA-MB-231 7.19 µM | T47D 14.5 µM | EKVX 17.2 µM | PC-3 12.5 µM | TK-10 21 µM | SK-MEL-5 1.14 µM | UO-31 7.59 µM

CCOC(=O)CCC(NC(=O)c1ccc(Nc2nc3ccccc3nc2-c2cccs2)cc1)C(=O)OCC (configuration not stated)
21.9 µM: HCT-15
inactive: 786-0 32.4 µM | NCI-H460 25.1 µM | MDA-N 20.6 µM | BT-549 23.6 µM | HT-29 25.6 µM | SF-268 27.1 µM | A549 63.2 µM | RXF 393 87.3 µM | HOP-92 29.8 µM | SNB-19 29.2 µM | SF-295 19.4 µM | Malme-3M 24.1 µM | KM12 24.6 µM | OVCAR-5 > 100 µM | K562 12.1 µM | MOLT-4 7.98 µM | OVCAR-3 > 100 µM | SF-539 32.7 µM | SK-MEL-2 31.2 µM | SK-MEL-28 26.3 µM | RPMI-8226 7.53 µM | SW-620 33.8 µM | OVCAR-4 23.9 µM | SK-OV-3 28.6 µM | UACC-62 23.7 µM | U-251 27.4 µM | HCC 2998 33.9 µM | M14 > 100 µM | LOX IMVI 23.1 µM | HCT-116 28.4 µM | NCI-H226 26.6 µM | COLO 205 25.2 µM | HOP-62 > 100 µM | MDA-MB-435 30.2 µM | OVCAR-8 20.8 µM | CAKI-1 29.8 µM | ACHN 31 µM | UACC-257 29.2 µM | IGROV-1 28 µM | SNB-75 36.3 µM | HL-60 5.21 µM | Hs-578T 23 µM | NCI/ADR-RES 21.3 µM | SR 11.8 µM | CCRF-CEM 11.4 µM | NCI-H23 32.3 µM | DU-145 29.8 µM | A498 21.7 µM | MCF7 26.9 µM | SN12C 22.1 µM | MDA-MB-231 27.3 µM | T47D 12 µM | EKVX 31.6 µM | PC-3 38.5 µM | TK-10 21.2 µM | SK-MEL-5 15.2 µM | UO-31 30.9 µM

O=[N+]([O-])c1cccc2nccc(NCC(O)CO)c12 (configuration not stated)
8.85 µM: HCT-15
inactive: 786-0 18 µM | NCI-H460 8.18 µM | MDA-N 17.1 µM | BT-549 14.2 µM | HT-29 14.7 µM | SF-268 19.8 µM | A549 15.1 µM | RXF 393 11.6 µM | HOP-92 20.6 µM | SF-295 21 µM | Malme-3M 14.4 µM | KM12 14 µM | OVCAR-5 21 µM | K562 20.2 µM | MOLT-4 9.55 µM | OVCAR-3 15.5 µM | SF-539 17.7 µM | SK-MEL-2 11.4 µM | NCI-H522 7.01 µM | SK-MEL-28 15.7 µM | RPMI-8226 12.7 µM | SW-620 14.5 µM | OVCAR-4 18.5 µM | SK-OV-3 25.4 µM | UACC-62 15 µM | U-251 14.6 µM | HCC 2998 13.1 µM | M14 17.4 µM | LOX IMVI 21.7 µM | HCT-116 13.4 µM | NCI-H226 12.2 µM | COLO 205 15 µM | HOP-62 17.6 µM | MDA-MB-435 16.6 µM | OVCAR-8 11.6 µM | CAKI-1 16 µM | ACHN 20.6 µM | UACC-257 15.2 µM | IGROV-1 16.1 µM | SNB-75 22.8 µM | HL-60 1.36 µM | Hs-578T 7.8 µM | NCI/ADR-RES 25.5 µM | SR 5.06 µM | CCRF-CEM 13.3 µM | NCI-H23 16 µM | DU-145 26.3 µM | A498 7.66 µM | MCF7 13.9 µM | SN12C 16 µM | MDA-MB-231 11.5 µM | T47D 24.2 µM | EKVX 14.5 µM | PC-3 16.5 µM | TK-10 18 µM | SK-MEL-5 13.1 µM | UO-31 18.2 µM

Oc1c(Br)ccc2cccnc12
0.948 µM: HCT-15
active: SF-268 0.646 µM | SF-295 0.834 µM | K562 1.06 µM | NCI-H522 0.959 µM | LOX IMVI 0.895 µM | IGROV-1 0.938 µM | HL-60 0.326 µM | NCI/ADR-RES 1 µM | SR 0.944 µM | CCRF-CEM 0.521 µM | MCF7 0.443 µM
inactive: 786-0 3.91 µM | NCI-H460 1.6 µM | MDA-N > 19.8 µM | BT-549 7.48 µM | HT-29 5.3 µM | A549 3.14 µM | RXF 393 2.88 µM | HOP-92 4.09 µM | SNB-19 5.06 µM | Malme-3M 3.46 µM | KM12 4.07 µM | OVCAR-5 4.32 µM | MOLT-4 2.02 µM | OVCAR-3 1.32 µM | SK-MEL-2 11.2 µM | SK-MEL-28 20.5 µM | RPMI-8226 2.79 µM | SW-620 4.81 µM | OVCAR-4 2.1 µM | SK-OV-3 4.21 µM | UACC-62 1.52 µM | U-251 2.4 µM | HCC 2998 15.1 µM | HCT-116 2.05 µM | NCI-H226 5.19 µM | COLO 205 3.04 µM | HOP-62 12.4 µM | MDA-MB-435 7.5 µM | OVCAR-8 2.25 µM | CAKI-1 5.94 µM | ACHN 3.13 µM | UACC-257 1.36 µM | SNB-75 10.4 µM | Hs-578T 3.21 µM | NCI-H23 1.15 µM | DU-145 5.4 µM | A498 8.81 µM | SN12C 4.73 µM | MDA-MB-231 1.87 µM | T47D 1.51 µM | EKVX 3.27 µM | PC-3 3.33 µM | TK-10 5.04 µM | SK-MEL-5 2.38 µM | UO-31 1.64 µM

Cc1c(C(=O)OCc2ccccc2)[n+]([O-])c2cc(Cl)c(Cl)cc2[n+]1[O-]
inactive: 786-0 16 µM | NCI-H460 14.2 µM | MDA-N 20.6 µM | BT-549 20.4 µM | HT-29 17.1 µM | SF-268 17.5 µM | A549 11.1 µM | RXF 393 19.1 µM | HOP-92 6.27 µM | SNB-19 27 µM | SF-295 16.8 µM | KM12 10.5 µM | OVCAR-5 21.3 µM | K562 23.6 µM | MOLT-4 3.28 µM | OVCAR-3 12.2 µM | SF-539 22.5 µM | SK-MEL-2 17.4 µM | SK-MEL-28 25.1 µM | RPMI-8226 6.46 µM | OVCAR-4 14 µM | SK-OV-3 22.5 µM | UACC-62 14.9 µM | U-251 24.6 µM | HCC 2998 15.2 µM | M14 15 µM | LOX IMVI 17.2 µM | HCT-116 14.2 µM | NCI-H226 5.77 µM | COLO 205 18.2 µM | HOP-62 14.2 µM | MDA-MB-435 19.8 µM | OVCAR-8 18.2 µM | CAKI-1 13 µM | ACHN 21.4 µM | UACC-257 15.1 µM | IGROV-1 5.83 µM | HL-60 11.7 µM | Hs-578T 19.2 µM | NCI/ADR-RES 18.2 µM | SR 5.37 µM | CCRF-CEM 14.8 µM | NCI-H23 18.5 µM | DU-145 14.5 µM | A498 20.5 µM | MCF7 19.5 µM | SN12C 18.1 µM | MDA-MB-231 19.5 µM | T47D 5.48 µM | EKVX 13.9 µM | PC-3 15.7 µM | TK-10 18.7 µM | SK-MEL-5 15 µM | UO-31 16.4 µM
16.1 µM: HCT-15
